# Data from patent US20240091328A1, “FORMULATIONS AND METHODS FOR MHC-I RESTRICTED EPITOPE IMMUNIZATION” (The Research Foundation for The State University of New York, priority 2021, published 2024).
# Legend:
# [1] = system: IFN-γ and TNF-α producing CD8^+ T cells; test: Intracellular IFN-γ / TNF-α staining of splenocytes after antigen re-stimulation; format: in vivo, BALB/c mice; conditions: mice vaccinated with CPQ and 20 RENCA peptides
# Description: For Intracellular staining: 100 μL of 1×10^6 splenocytes were seeded in a flat bottom 96 wells plate and stimulated with 10 μg/mL antigen for 15-18 hours in the cell culture incubator. Then Brefeldin A was added to the plates with a dilution of 1000× for another 5 hours. Cells were transferred to a round bottom 96 wells plate and centrifuged at 1350 rpm for 3 mins, the cell pellets were washed twice and stained with 500× live/dead fixable dye, 200× diluted APC anti-mouse CD8, 200× diluted FITC anti-mouse CD4, 200× diluted PE/Cy7 anti-mouse CD62L and 200× diluted PerCP/Cy5.5 […] 25 min at 4° C. with shaking. Cells were washed twice and fixed and permeabilized by fixation/permeabilization buffer for 20 min at 4° C. Cells were washed twice with perm wash buffer and stained with 200× diluted pacific blue anti-mouse IFN-γ and 200× diluted PE anti-mouse TNF-α for 30 min on ice. Cells were washed twice by perm/wash buffer for flow cytometry.
# [2] = system: RENCA cells; test: Prophylactic vaccine tumor model, subcutaneous RENCA challenge; format: in vivo, BALB/c mice; conditions: single peptide with CoPoP liposome, days 0 and 7, RENCA day 14
# Description: Multivalent vaccine was prepared by first incubate all 20 peptides with CPQ and 2HPQ liposome for a hour at room temperature with a mass ratio of 1:4. The binding percentage of peptides was assessed by peptide filtration assay. […] There was no significant change of sizes of liposome before or after binding, which were around 100 nm (FIG. 19B). The polydispersity index of liposomes is smaller than 0.25 (FIG. 19C). Mice were vaccinated with CPQ/peptides on day0 & 7, the injection dose is 50 ng per peptide and lug total peptide per mouse. Mice were then challenged with RENCA cells subcutaneously on day14.
# To confirm which peptide was responsible to the anti-tumor efficacy of the vaccine, we admixed single peptide with CoPoP liposome as a vaccine to inject BALB/c mice. These 20 vaccines were injected to 20 groups of BALB/c mice on day 0 & 7, RENCA cells were inoculated on day14.
# Tumor challenge: For the prophylactic vaccine tumor model, mice were vaccinated on day 0 and 7, and challenged on day 14. For testing the long-term protection of vaccine, mice were challenged on day 80. […] Tumor growth was monitored three times a week and tumor sizes were calculated by equation: Tumor volume=length×width^2/2. […] Tumor nodules were counted manually and lung weights were measured.
# [3] = system: RENCA cells; test: Cell lysis by splenocyte effector cells, LDH release, RENCA targets; format: cell-based, mouse; conditions: single peptide vaccine
# Description: FIG. 20. […] BALB/c mice were immunized with CPQ/peptide vaccine on day 0 & 7, then inoculated with RENCA cells subcutaneously on day 14. (A) Tumor sizes of mice vaccinated with CPQ admixed with indicated peptide 18 days post tumor inoculation. Splenocytes were prepared 18 days post tumor inoculation and cultured in vitro for 5 days then stimulated with antigens and served as Effector cells (E), tumor cells were target cells (T). Effector cells were incubated with target cells for 5 hours, then specific lysis was analyzed by the nonradioactive LDH release assay by following the manufacturer's instructions. Percent cell lysis of RENCA cells (B) and percent cell lysis of irrelevant TC-1 cells (C). Error bars show mean+/−std. dev. for n=5 independent experiments.
# For Cytotoxic T lymphocyte (CTL) cytotoxicity assay, isolated splenocytes were cultured in the cell culture medium and stimulated by mouse IL-2 (Pepro tech; catalog: 212-12; 10 IU/mL) and antigens (10 μg/mL) for 5 days to use as the effector cells. 5000 CT26 cells were seeded in a 96 wells plate and pulsed with 10 μg/mL antigens for 1 hour, then splenocytes were added to the plate at different E:T ratios for 5 hours. The cytotoxicity of splenocytes on tumor cells was assessed by lactate dehydrogenase (LDH) release using Non-Radioactive Cytotoxicity Assay Kit (Promega; catalog: G1780) according to manufacturer instructions.
# [4] = system: AH1-specific CD8^+ T cells; test: AH1 tetramer staining of CD8+ T cells after immunization; format: in vivo, BALB/c mice; conditions: CPQ with 1 μg total peptide, days 0 and 7, blood day 14
# Description: In vivo immunization: Murine studies were performed according to protocols approved by the University at Buffalo IACUC. 5-6 week-old female BALB/c mice (Charles River Laboratories, strain BALB/cAnNCrl) were immunized intramuscularly on the right hind leg. BALB/cJ mice (Jackson Laboratories) were used in this study only for DNA sequencing where indicated.
# For tetramer staining, immunized mice were analyzed for the percentages of tumor Ag-specific CD8^+ T cells by a tetramer staining assay. H-2L^d-restricted AH1 ([…]) peptide was complexed with MHC-I (H-2L^d) and conjugated with PE (the NIH Tetramer core facility). 60 μL of blood incubated with the AH1 tetramer for 1 hr at 4° C. (100× dilution), then incubated with CD8a, MHC-II (IA/IE), B220, CD4, CD44 and CD62L antibodies for 30 min at 4° C. (1000× dilution). Red blood cells were lysed by cell lysis buffer for 5 mins then cells were centrifuged at 500×g for another 5 min. The cell pellets were washed twice for flow cytometry analysis. For tetramer staining of splenocytes, 1×10^6 cells were incubated with tetramer and antibodies in the same condition as blood, and then washed twice for flow cytometry analysis. Flow cytometry studies were carried out using a BD LSRFortessam X-20 cytometer. Flowjo (version 10) software was used for data analysis.
# [5] = system: TC-1 cells; test: Therapeutic vaccine tumor model, subcutaneous TC-1; format: in vivo, C57BL/6 mice; conditions: E7HHH49-57 admixed with poly(I:C), up to 20 μg peptide
# Excerpt: (§1) FIG. 23. Immunization with E7HHH49-57-admixed with CPQ inhibits tumor growth in a therapeutic setting more potently than poly(I:C). C57BL/6 mice were inoculated with TC-1 cells subcutaneously on day 0; then different vaccines were given 2 days post-tumor inoculation. Blood was collected 18 days post-tumor inoculation for CD8^+ T cell analyses. (A) Tumor growth of mice that vaccinated with indicated vaccine. (B) Tumor sizes of mice on day 19. (C) Survival of mice. (D) Percentage of CD8^+E749-57 tet^+ cells in the blood. Error bars show mean+/−std. dev. for n=5 per group. * p<0.05, ** p<0.01 and **** p<0.0001, analyzed by (C) long rank test or (D) one-way ANOVA with Bonferroni multiple comparisons post-test.
# (§2) Since CPQ/E7HHH49-57 was effective in a prophylactic setting, we next assessed the vaccine on established TC-1 tumors, which is also the setting in which most cancer vaccines would be initially tested clinically. Poly(I:C) was used as an adjuvant comparator. For poly(I:C), the synthetic short peptide dose ranged from […] per mouse while the poly(I:C) dose remained fixed at […]. For the CPQ liposome adjuvant, the peptide dosing varied from […] per mouse. Given that the ratio of liposomes to peptide was fixed, this corresponds to a 3D6A-PHAD dose and QS-21 dose ranging from 1.6 to 0.16 μg, along with a CoPoP dose ranging from 4 to 0.4 μg. […]
# [6] = system: E749-57 specific CD8^+ T cells; test: E749-57 tetramer staining of CD8+ T cells in blood; format: in vivo, C57BL/6 mice; conditions: E7HHH49-57 admixed with poly(I:C), 19 days post-tumor inoculation
# Excerpt: as §1, with “Blood was collected 18 days post-tumor inoculation for CD8^+ T cell analyses.” left out
# as §2
substance,measurement,setting,value
3His-AYTTQREEL (HHHAYTTQREEL; N-terminal 3His tag; Renca_2),IFN-γ producing CD8^+ T cells in the spleen after stimulation with individual peptide,[1],around 2%
same,"Tumor growth, single peptide vaccine",[2],inhibited tumor growth
same,Lysis of RENCA cells by T cells of vaccinated mice,[3],induced functional T cells that specific targets to RENCA cells
SPSYVYHQF [AH1],CD8^+ T cells that were Ag specific (AH1 tet^+),[4],did not elicit detectable amount
Polyinosinic:polycytidylic acid [poly(I:C)],Time within which tumors of all mice reached the 1 cm endpoint,[5],≤ 60 days
same,Ag-specific CD8^+ T cells in the blood,[6],almost no
